Experiment [1] has as its system smooth muscle cell (SMC) from rat aorta. As to the kind of experiment: Inhibition of growth of vascular smooth muscle cell. It counts as cell-based. To be noted: 48 hours, MTT. On the procedure: Inhibition of Growth of Vascular Smooth Muscle Cell
The separation from the artery of rat and culture of smooth muscle cell (SMC) followed the explant method of Ross (Ross, R. and Glomset, J. A., N. Engl. J. Med., 295, 369-420, 1976). Male wistar rats (10 week old) was slaughtered by cutting the carotid arteries and aorta of thorax was removed. After removal of fat tissues around the tunica externa and peeling of tunica intima, the artery was minced and incubated in 10% fetal bovine serum (FBS)-containing DMEM medium at 37° C. under 5% CO2 gas. Seven days later, the out-grown cells were separated by trypsin treatment, washed with phosphate-buffered saline (PBS) and incubated in 10% FBS-containing DMEM medium in a 80 cm^2 culture flask. The cells of subculture 2 were suspended in 10% FBS-containing DMEM medium at 5×10^4 cells/ml and 100 μl thereof per well was added to 96 well collagen-coated plate, which was incubated at 37° C. under 5% CO2 gas for one day. The test compound was appropriately diluted with dimethyl sulfoxide (DMSO) and added to the 96 well plate. The concentration of DMSO in the medium was adjusted to 1%. After 48 hours, 10 μl of MTT solution (5 mg/ml) was added and, 4 hours later, 10% sodium dodecyl sulfate-0.01 N hydrochloric acid (50 μl) was added. The absorbance at 570 nm was measured the following day by an immunoreader. The SMC growth inhibitory action of the test compound was shown by inhibition percentage calculated by the following formula The results are shown in Table 10.

Experiment [2] relates to hind limb skin blood flow. The experiment can be described thus: Peripheral blood flow increasing action in STZ-induced diabetic rats. It counts as in vivo, rat. The note with it: intravenous. As for the experimental part: Peripheral Blood Flow Increasing Action
Streptozotocin (STZ, 65 mg/kg) was intravenously injected to male SD rats (body weight 200-300 g) to prepare diabetic rats. One month later, STZ-induced diabetic rats were anesthetized with pentobarbital sodium and the blood flow in the hind limb skin was measured with laser blood flowmeter (ALF21R, Advance). The test compound was intravenously administered via catheter dwelled in the carotid arteries, and hind limb skin blood flow increasing action was observed. The blood flow increasing action of the test compound was expressed by increase percentage from the blood flow before administration.

Experiment [3] relates to thoractic aorta ring contracted with phenylephrine. As to the kind of experiment: Vasodilating action on phenylephrine-contracted thoracic aorta rings. To be noted: rabbit aortic ring, phenylephrine 10^−6 M contraction, concentration for 50% relaxation, read-out: Vasorelaxing action. On the procedure:
Male rabbits (body weight 1.9-3.0 kg) were anesthetized with pentobarbital sodium and exsanguinated, whereafter thoractic aorta was removed. An about 2 mm width aortic ring samples were prepared and hung in a Magnus bath (40 ml) filled with Krebs-Henseleit solution (37° C., NaCl 117 mM; KCl 4.7 mM; CaCl2 2.5 mM; MgSO4 1.2 mM; NaHCO3 24.8 mM; KH2PO4 1.2 mM; glucose 11.0 mM) at a load of 2 g. The Magnus bath was constantly bubbled with a mixed gas (95% O2+5% CO2 gas). The tension of the preparation was measured with an isomeric transducer (TB-611T, Nippon Koden). The preparation was contracted with phenylephrine (10^−6 M) and, after the contraction was stabilized, the test compound was added accumulatively and relaxing action was observed.

The subject of experiment [4] is CEM cells (human T cell type established cell). The experiment can be described thus: Inhibition of VLA integrin activation (phorbol ester-induced adhesion of CEM cells to fibronectin). It counts as cell-based. To be noted: CCRF-CEM, concentration 10 μM, PMA-induced adhesion, read-out: Adhesion induction inhibition (%). On the procedure:
Inhibition of VLA (Very Late Antigen) Integrin Activation
As the index of the activation by VLA integrin, phorbol ester-induced adhesion of CEM cells (human T cell type established cell) to fibronectin, which is a ligand of VIA integrin, was measured. The inhibitory action on the induced adhesion by the test compound was determined by the following method.
CEM cells were washed with RPMI1640 medium containing 0.5% bovine serum albumin (BSA), 10 mM HEPES, 2 mM L-glutamin, 1 mM sodium pyruvate, 60 μg/ml kanamycin sulfate and 1.5 mg/ml sodium hydrogencarbonate (hereinafter this medium is referred to as culture solution) and suspended in this medium for use in the following experiment. To each well of a 96 well plate coated with human fibronectin were added CEM cells (5×10^4) and the test compound dissolved in the culture solution (final concentration 1-100 μM) to the amount of 100 μl, and the plate was stood at 37° C. for 1 hour. Then, PMA (phorbol 12-myristate 13-acetate, TPA; final concentration 10 ng/ml) and the test compound were added to the amount of 200 μl, and the plate was stood at 37° C. for 30 minutes. Each well was washed twice with the culture solution (200 μL) at 37° C., and the LDH (lactate dehydrogenase) activity of the cells adhered to the plate was determined, whereby the amount of the adhered cell was measured. Based on the results obtained by the above-mentioned method, the inhibitory action of the test compound on the induced adhesion was calculated by the following formula The results are shown in Table 6. Inhibition (%) of adhesion induction=(a−b)/(a−c)×100 • a=number of cells adhered with the addition of PMA • b=number of cells adhered with the addition of test compound and PMA • c=number of cells adhered without stimulation

Experiment [5] deals with Bovine Aorta Thoracia Rho Kinase. As to the kind of experiment: Rho kinase inhibitory action (inhibition of bovine aorta thoracia Rho kinase). It counts as biochemical. To be noted: test compound 10 μM. As for the experimental part:
Rho Kinase Inhibitory Action (Inhibition of Bovine Aorta Thoracia Rho Kinase)
The Rho kinase was prepared from bovine aorta of thorax by partial purification as in the following. The artery was minced and homogenized with a 9-fold amount of 50 mM Tris-hydroxymethylaminomethane (Tris) (pH=7.4), 1 mM dithiothreitol, 1 mM EGTA, 1 mM EDTA, 100 μM p-amidinophenylmethylsulfonyl fluoride, 5 μM E-64, 5 μM leupeptine and 5 μM pepstatin A. The homogenate was centrifuged (10,000×g, 30 minutes) to give supernatant. The supernatant was adsorbed onto a hydroxyapatite column. The column was washed with 0.2M phosphate buffer (pH=6.8). The standard product of Rho kinase was eluted with 0.4M phosphate buffer (pH=6.8). The Rho kinase was assayed as follows.
A reaction mixture (total amount 50 μl) containing 50 mM Tris, 1 mM EDTA, 5 mM MgCl2, 50 μg/ml histone, 10 μM GTPγS, 100 μg/ml Rho, 2 μM [^32P]ATP, the Rho kinase (3 μl) prepared in the above and the test compound was reacted at 30° C. for 5 minutes. The reaction was terminated by the addition of 25% trichloroacetic acid (TCA) solution (1 ml) and the mixture was stood at 4° C. for 30 minutes. Then, the mixture was filtered through a membrane filter (HAWP type, Millipore), and the radioactivity of the filter was counted on a liquid scintillation counter. The inhibitory action of the test compound was calculated from the following formula based on the comparison of the radioactivity with the sample without the test compound (control).

Experiment [6] has as its system normal human umberical vascular endothelial cells. The experiment can be described thus: Inhibition of angiogenesis (lumen formation in vascular endothelial cells). In kind it is cell-based. The note with it: 18 hours, compared with the control, number rises with inhibition of lumen formation. On the procedure:
Inhibition of Angiogenesis
The inhibition of angiogenesis was evaluated by using the inhibition of lumen formation in vascular endothelial cell as an index. To be specific, normal human umberical vascular endothelial cells (KURABO […] LTD.) were suspended in E-GMUV medium at 5.5×10^4 cells/ml and 400 μl therefrom was added on matrigel plate (EHS sarcoma-derived reconstructed basement membrane, Collaborative Biomedical Products). Then, the test compound (1 mM solution, 4 μl) was added and the cells were incubated at 37° C. under 5% CO2 gas for 18 hours. After the completion of the incubation, the number of lumen per predetermined area was counted under a microscope. Inasmuch as the number of lumen increases by the inhibition of lumen formation, the test compound was evaluated by comparison of the number of lumen with the control.

In experiment [7] the test system is trachea specimen contracted with acetylcholine. As to the kind of experiment: Effect on contraction by acetylcholine of trachea specimen removed from guinea pig. The note with it: acetylcholine 10^−6 M contraction, 50% relaxation vs papaverine 10^−4 M maximum, read-out: Trachea relaxing action.
Method: Male Hartley guinea pigs (body weight 260-390 g) were anesthetized by the peritoneal administration of pentobarbital sodium (100 mg/kg) and exsanguinated, whereafter trachea was removed. The anterior cartilage of the trachea was opened and the band was cut in a 3 mm width strip to give a specimen. The specimen was hung in a Magnus bath (40 ml) filled with Krebs-Henseleit solution (NaCl 117 mM; KCl 4.7 mM; CaCl2 2.5 mM; MgSO4 1.2 mM; NaHCO3 24.8 mM; KH2PO4 1.2 mM; glucose 11.0 mM) at a load of 1 g. The Magnus bath was constantly bubbled with a mixed gas (95% O2+5% CO2 gas). The tension of the strip was measured with an isomeric transducer (TB-611T, Nippon Koden) and depicted on a recorder (Ti-102, Tokai Irika).
In experiment [8] the target is T1, Human Platelet Rho Kinase (p160ROCK) (Homo sapiens, UniProt Q13464).
T1 construct: Human platelet p160ROCK was isolated by the method of Ishizaki et al; from tissue; host or cells: human platelets
The experiment can be described thus: Rho kinase inhibitory action (inhibition of human platelet Rho kinase (p160ROCK)). To be noted: histone substrate, 1 μM ATP. It counts as biochemical. On the procedure:
Rho Kinase Inhibitory Action (Inhibition of Human Platelet Rho Kinase (p160ROCK))
Kinase assay included the following steps. That is, a reaction mixture (total amount 30 μl) containing 50 mM Hepes-NaOH (pH=7.4), 10 mM MgCl2, 5 mM MnCl2, 2 mM dithiothreitol, 0.02% Brij35, 1 μM [γ-^32P]ATP, 330 μg/ml histone, p160ROCK (2 μl) isolated by the method of Ishizaki et al. and the test compound was incubated at 30° C. for 20 minutes. The solution was mixed with a 1/3 amount of 4× Laemmli sample buffer, boiled for 5 minutes and applied to SDS-PAGE. The gel was stained with Coomassie Brilliant Blue and dried. The band of histone was cut out and assayed for radioactivity.

The subject of experiment [9] is BALB/c spleen cells stimulated with C57BL/6 spleen cells. As to the kind of experiment: Inhibition of mouse allogenic mixed lymphocyte reaction. It counts as cell-based. The note with it: Mus musculus, Lymphocyte, 96 h; 4 days culture, MTT; read-out: Mouse allogenic MLR inhibitory activity IC50. As for the experimental part:
Inhibition of Mouse Allogenic Mixed Lymphocyte Reaction
A mouse allogenic mixed lymphocyte reaction (hereinafter to be referred to as mouse allogenic MLR) was performed by mixed culture (equal ratio) of the spleen cell of BALB/c mice as the reaction cell and the spleen cell of C57BL/6 mice treated with mitomycin C as stimulated cell.
The reaction cells were prepared by the following method. Spleen was removed from 5-6 week old BALB/c mice and treated with RPMI1640 medium (containing kanamycin sulfate (60 μg/ml), penicillin G potassium (100 units/ml), N-2-hydroxyethylpiperazine-N′-2-ethanesulfonate (10 mM), 0.1% sodium hydrogencarbonate and L-glutamin (2 mM)) supplemented with 5% heat inactivated fetal bovine serum (FBS) to give a single cell suspension of the spleen cell. After hemolysis treatment, the suspension was adjusted to10^7 cells/ml with RPMI1640 medium containing 10^−4 M 2-mercaptoethanol and 10% FBS and used as a reaction cell suspension.
The reaction cell suspension (50 μl) prepared by the above method, stimulated cell suspension (50 μl) and the test compound (100 μl) prepared using RPMI1640 medium containing 10% FBS were added to a 96 well plate and incubated at 37° C. under 5% CO2 gas, 95% air for 4 days.
A pigment assay using 3-(4,5-dimethylthiazol-2-yl)-2,5-diphenyltetrazolium bromide (MTT) was applied for the determination of lymphocyte transformation reaction.
After the completion of culture, the supernatant (100 μl) in each well was removed, and 5 mg/ml MTT solution (20 μl) was added to each well, which was followed by incubation at 37° C. for 4 hours. Then, a 0.01 N hydrochloric acid solution (100 μl) containing 10% sodium dodecyl sulfate was added and the mixture was incubated at 37° C. overnight. The resulting purple crystals of formazan was dissolved and absorbance at 550 nm was measured using a microplate absorption meter, which was used as the index of lymphocyte transformation reaction of the mouse allogenic MLR. The inhibition of mouse allogenic MLR was evaluated by calculating the inhibition percentage by the following formula The results are shown in Table 7.

Structures can show the parent of a compound that is named as a salt. Where two headings read alike, the source gives them in different places.

T1 sequence (Q13464 whole entry): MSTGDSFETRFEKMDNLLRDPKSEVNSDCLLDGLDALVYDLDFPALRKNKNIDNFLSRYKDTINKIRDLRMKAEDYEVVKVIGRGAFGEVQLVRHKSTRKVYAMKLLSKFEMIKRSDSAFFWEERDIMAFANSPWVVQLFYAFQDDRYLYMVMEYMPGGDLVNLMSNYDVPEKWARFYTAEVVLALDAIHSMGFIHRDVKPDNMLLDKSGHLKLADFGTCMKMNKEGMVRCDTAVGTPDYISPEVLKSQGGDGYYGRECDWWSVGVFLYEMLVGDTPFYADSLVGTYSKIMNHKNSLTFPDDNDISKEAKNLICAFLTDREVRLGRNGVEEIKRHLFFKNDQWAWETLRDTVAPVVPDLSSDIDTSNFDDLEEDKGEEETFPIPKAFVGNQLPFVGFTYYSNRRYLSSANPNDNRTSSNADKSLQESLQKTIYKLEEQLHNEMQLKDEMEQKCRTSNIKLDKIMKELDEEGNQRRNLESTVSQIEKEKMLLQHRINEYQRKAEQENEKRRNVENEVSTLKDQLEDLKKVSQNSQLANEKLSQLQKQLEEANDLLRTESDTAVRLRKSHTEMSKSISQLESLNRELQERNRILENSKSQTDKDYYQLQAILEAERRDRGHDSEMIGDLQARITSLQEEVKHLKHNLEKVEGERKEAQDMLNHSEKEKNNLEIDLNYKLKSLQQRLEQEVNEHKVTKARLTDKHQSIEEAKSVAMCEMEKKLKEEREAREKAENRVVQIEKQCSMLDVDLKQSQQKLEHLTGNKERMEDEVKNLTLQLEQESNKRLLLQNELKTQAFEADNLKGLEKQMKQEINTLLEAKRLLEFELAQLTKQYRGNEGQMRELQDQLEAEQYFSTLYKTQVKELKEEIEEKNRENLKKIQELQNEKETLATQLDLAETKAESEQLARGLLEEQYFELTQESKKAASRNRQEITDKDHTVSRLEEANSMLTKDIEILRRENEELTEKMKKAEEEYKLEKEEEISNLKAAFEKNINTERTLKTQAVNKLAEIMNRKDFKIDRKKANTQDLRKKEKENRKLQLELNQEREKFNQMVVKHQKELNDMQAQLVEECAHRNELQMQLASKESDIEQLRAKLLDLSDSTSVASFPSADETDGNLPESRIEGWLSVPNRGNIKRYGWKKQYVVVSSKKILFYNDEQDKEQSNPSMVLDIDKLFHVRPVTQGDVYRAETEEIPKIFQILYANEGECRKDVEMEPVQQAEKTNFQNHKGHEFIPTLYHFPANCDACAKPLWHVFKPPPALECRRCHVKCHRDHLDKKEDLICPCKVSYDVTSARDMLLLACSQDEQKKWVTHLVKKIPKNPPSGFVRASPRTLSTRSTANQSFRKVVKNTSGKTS

As for `C[C@@H](N)c1ccc(C(=O)Nc2ccncc2)cc1` [Compound 157.HCl.H2O, (R)-(+)-N-(4-pyridyl)-4-(1-aminoethyl)benzamide], in [1], the IC50 was determined as 55000 nM. In addition, the “Increase in skin blood flow ± standard error (%)” value in [2] (1 μg) came out at 211.6 ± 13.6%.

As a reminder, the inhibition is the drop in the measured response relative to a control, in per cent. On to `C[C@@H](N)c1ccc(C(=O)Nc2ccnc3[nH]ccc23)cc1` [Compound 165.2HCl.3/2H2O, (R)-(+)-N-(1H-pyrrolo[2,3-b]pyridin-4-yl)-4-(1-aminoethyl)benzamide], for which the IC50 was determined as 51 nM in experiment [3] (Oryctolagus cuniculus), 66 nM in experiment [7] (Cavia porcellus) and 38000 nM in experiment [1]. Besides, in experiment [4], the inhibition at 10 µM stood at 40%. In experiment [5], the “Inhibition (%)” value was determined as 100%. In [6], the “Number of lumen (10 μM)” value is 222%. The figures for the “Increase in skin blood flow ± standard error (%)” value in experiment [2] (0.03 μg) and in experiment [2] (0.1 μg) were 135.8 ± 0.0% and 144.7 ± 0.0%, respectively.

For `C[C@@H](N)c1ccc(C(=O)Nc2ccnc3[nH]ccc23)cc1N=[N+]=[N-]` [Compound 179.2HBr.1/2H2O, (R)-(−)-N-(1H-pyrrolo[2,3-b]pyridin-4-yl)-4-(1-aminoethyl)-3-azidebenzamide], the IC50 in experiment [3] worked out at 30 nM; in experiment [7], 29 nM.

On to `CC1CNCCN1S(=O)(=O)c1cccc2cnccc12` (centres unmarked) [Compound 308.2HCl, 1-(5-isoquinolinesulfonyl)-2-methylpiperazine], for which the IC50 in [8] is 5000 nM; in experiment [9] it was 13900 nM.

These data come from patent US6906061B2, “Pharmaceutical agent containing Rho kinase inhibitor” (Mitsubishi Pharma Corporation, priority 1996, dated 2005).
